Assay results from article PMC10615177 (ACS infectious diseases, 2023).
“And” between values parts separate entries of the source, which are not always exact repeats. Equal values may be shown once. Read-outs that look alike come from different tables or passages of the source.

What was measured:
[1] = system: M. tuberculosis Erdman; assay: M. tuberculosis Erdman growth inhibition; type: cell-based, Mycobacterium tuberculosis
[2] = DSC of DMPC bilayers with inhibitor; type: physicochemical; conditions: for Tm (main transition) / ΔH / ΔT1/2: 10 wt % inhibitor, PBS pH 7.4, heating
[3] = system: M. smegmatis; assay: M. smegmatis cell growth inhibition; type: cell-based, Mycobacterium smegmatis; conditions: read-out: Ms IC50; M. smegmatis
[4] = system: M. abscessus smooth variant; assay: microbe, parasite or virus in culture; type: cell-based
[5] = system: T. brucei bloodstream forms; assay: T. brucei bloodstream form growth inhibition; type: cell-based, Trypanosoma brucei; conditions: read-out: T. brucei IC50; bloodstream forms
[6] = system: E. coli; assay: E. coli growth inhibition; type: cell-based, Escherichia coli; conditions: for IC50: read-out: Ec IC50
[7] = system: U2OS host cells; assay: U2OS host cell growth inhibition; conditions: read-out: T. cruzi CC50 (U20S)
[8] = system: T. cruzi Dm28c epimastigotes; assay: T. cruzi epimastigote growth inhibition; type: cell-based, Trypanosoma cruzi; conditions: read-out: T. cruzi IC50 (EPI); epimastigotes
[9] = system: Plasmodium falciparum asexual blood stages; assay: P. falciparum asexual blood stage; type: cell-based; conditions: read-out: PfABS IC50 (μM ± S.E.); asexual blood stages
[10] = system: M. tuberculosis HN878; assay: M. tuberculosis HN878 growth inhibition; type: cell-based, Mycobacterium tuberculosis; conditions: for IC50: read-out: Mtb HN878 IC50, dose-response curves; for Mtb HN878 MIC: visual inspection
[11] = system: HepG2 (human hepatocellular carcinoma) cells; assay: HepG2 cell line viability
[12] = system: M. abscessus rough variant; assay: microbe, parasite or virus in culture; type: cell-based
[13] = system: L. donovani promastigotes; assay: L. donovani promastigote growth inhibition; type: cell-based, Leishmania donovani; conditions: read-out: L. donovani IC50; promastigotes
[14] = DSC of DSPG bilayers with inhibitor; type: physicochemical; conditions: for Tm (main transition) / ΔH / ΔT1/2: 10 wt % inhibitor, PBS pH 7.4, heating; for Broadening of main transition peak ΔΤ1/2 compared to pure DSPG / Decrease of Tm compared to DSPG alone: heating
[15] = molecular target: M. tuberculosis MmpL3 (MtMmpL3) (Mycobacterium tuberculosis, UniProt P9WJV5); assay: Surface plasmon resonance binding to MmpL3; conditions: for koff: 1:1 Langmuir binding model
[16] = system: M. tuberculosis H37Rv; assay: M. tuberculosis H37Rv growth inhibition; type: cell-based, Mycobacterium tuberculosis
[17] = system: L. mexicana promastigotes; assay: L. mexicana promastigote growth inhibition; type: cell-based, Leishmania mexicana; conditions: for IC50: read-out: L. mexicana IC50, promastigotes
[18] = system: T. cruzi Dm28c intracellular amastigotes; assay: T. cruzi intracellular amastigote inhibition; type: cell-based, Trypanosoma cruzi; conditions: read-out: T. cruzi IC50 (PAR); intracellular amastigotes in U2OS host cells
[19] = system: Bacillus subtilis; assay: B. subtilis growth inhibition; type: cell-based; conditions: read-out: Bs IC50
[20] = Rat liver microsome stability; conditions: rat liver microsomes
[21] = Mice liver microsome stability; conditions: mice microsomes
[22] = Human liver microsome stability; conditions: human liver microsomes
[23] = read-out: KD, 1:1 model, 1:1 binding model, from ratio of rate constants
[24] = read-out: KD, 2-state, two-state model, from rate constants

Chain of M. tuberculosis MmpL3 (MtMmpL3) (P9WJV5 whole entry): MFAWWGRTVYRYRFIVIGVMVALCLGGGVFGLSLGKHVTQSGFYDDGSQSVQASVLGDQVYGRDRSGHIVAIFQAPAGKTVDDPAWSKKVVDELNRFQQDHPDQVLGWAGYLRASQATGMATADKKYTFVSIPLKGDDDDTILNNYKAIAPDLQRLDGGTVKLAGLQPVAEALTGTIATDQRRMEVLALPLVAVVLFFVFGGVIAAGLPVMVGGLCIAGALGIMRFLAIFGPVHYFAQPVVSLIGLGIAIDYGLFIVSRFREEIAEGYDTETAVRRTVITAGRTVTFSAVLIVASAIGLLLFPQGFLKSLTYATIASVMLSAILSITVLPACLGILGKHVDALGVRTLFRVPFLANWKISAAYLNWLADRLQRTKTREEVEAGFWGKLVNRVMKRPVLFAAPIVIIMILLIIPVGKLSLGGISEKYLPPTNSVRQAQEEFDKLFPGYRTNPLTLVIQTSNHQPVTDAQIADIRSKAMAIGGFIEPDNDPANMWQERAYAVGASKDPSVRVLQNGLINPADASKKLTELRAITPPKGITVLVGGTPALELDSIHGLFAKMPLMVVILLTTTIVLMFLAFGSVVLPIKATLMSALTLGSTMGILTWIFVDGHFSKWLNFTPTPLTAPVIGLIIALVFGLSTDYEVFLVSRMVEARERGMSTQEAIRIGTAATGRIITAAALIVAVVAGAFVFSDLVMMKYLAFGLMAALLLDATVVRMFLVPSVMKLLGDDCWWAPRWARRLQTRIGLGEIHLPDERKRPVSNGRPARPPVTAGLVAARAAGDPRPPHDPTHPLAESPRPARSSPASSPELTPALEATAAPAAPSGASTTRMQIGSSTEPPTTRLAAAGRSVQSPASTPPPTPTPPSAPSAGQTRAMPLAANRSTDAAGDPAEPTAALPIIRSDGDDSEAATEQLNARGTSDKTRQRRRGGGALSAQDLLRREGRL

| Structure (SMILES) | Mtb Erdman MIC [1] | Tm (main transition) [2] | ΔH [2] | ΔT1/2 [2] | Decrease of Tm compared to DMPC without inhibitor ([2]; heating) | IC50 [3] | Ma(S) MIC [4] | IC50 [5] | CC50 [7] | IC50 [8] | IC50 [10] | Mtb HN878 MIC [10] | HepG2 % viability @ 20 μM [11] | Ma(R) MIC [12] | IC50 [13] | Tm (main transition) [14] | ΔH [14] | ΔT1/2 [14] | Broadening of main transition peak ΔΤ1/2 compared to pure DSPG [14] | Decrease of Tm compared to DSPG alone [14] | further results |
| --- | --- | --- | --- | --- | --- | --- | --- | --- | --- | --- | --- | --- | --- | --- | --- | --- | --- | --- | --- | --- | --- |
| CCCC1(NCCNCC=C(C)CCC=C(C)C)C2CC3CC(C2)CC1C3 (stereo not shown) [Compound 8d, N-(3,7-dimethylocta-2,6-dien-1-yl)-N´-(2-propyladamantan-2-yl)ethane-1,2-diamine] | 13 µM | 17.5 °C | 5.4 kcal/mol | 2.2 °C | ~6 °C | 4300 ± 800 nM | 10 µM | 880 ± 200 nM | 1600 ± 100 nM | 2100 ± 900 nM | 2600 ± 1000 nM | 3 µM | 100% | 10 µM | 2000 ± 200 nM | 50.0 °C | 11.5 kcal/mol | 1.1 °C | 0.2–1.6 °C | 3–4 °C | IC50 [6]: 7600 nM; IC50 [9]: 0.53 ± 0.22 µM; koff [15]: 0.5403 s⁻¹; Kd [15, 23]: 91000 nM; Kd [15, 24]: 106000 nM; ka1 ([15]; two-state model): 7325 M⁻¹ s⁻¹; ka2 ([15]; two-state model): 0.00968 s⁻¹; kd1 ([15]; two-state model): 0.9488 s⁻¹; kd2 ([15]; two-state model): 0.04246 s⁻¹; Mtb H37Rv MIC [16]: 13 µM; Less active than 8b/SQ109, L. mexicana [17]: ~ 4 fold; IC50 [17]: 1940 nM and 1900 nM; IC50 [18]: 600 ± 500 nM |
| CCCCC1(NCCNCC=C(C)CCC=C(C)C)C2CC3CC(C2)CC1C3 (stereo not shown) [Compound 8e, N-(3,7-dimethylocta-2,6-dien-1-yl)-N´-(2-butyladamantan-2-yl)ethane-1,2-diamine] | 9.7 µM | 15.7 °C | 5.83 kcal/mol | 2.2 °C | ~7.8 °C | 2500 nM | 6.2 µM | 370 ± 20 nM | 1700 ± 1000 nM | 2500 ± 1000 nM | 2500 ± 200 nM | 3 µM | 50% | 6.2 µM | 4000 ± 400 nM | 49.0 °C | 9.2 kcal/mol | 3.6 °C | 2.7 °C | ~ 5 °C | Activity against M. abscessus higher than SQ109 [4]: 4–8 fold; MIC against M. abscessus [4]: 5.8 to 6.2 µM; IC50 [19]: 540 nM; IC50 [6]: 7800 nM; IC50 [9]: 0.27 ± 0.04 µM; HepG2 % viability @ 2 μM ([11]; 2 μM): 83%; koff [15]: 0.3888 s⁻¹; Kd [15, 23]: 97000 nM; Kd [15, 24]: 108000 nM; ka1 ([15]; two-state model): 5151 M⁻¹ s⁻¹; ka2 ([15]; two-state model): 0.009897 s⁻¹; kd1 ([15]; two-state model): 0.7008 s⁻¹; kd2 ([15]; two-state model): 0.03763 s⁻¹; Mtb H37Rv MIC [16]: 12.9 µM; IC50 [18]: 840 ± 500 nM |
| CC(C)=CCCC(C)=CCNCCNC1(Cc2ccccc2)C2CC3CC(C2)CC1C3 (stereo not shown) [Compound 8g, N-(3,7-dimethylocta-2,6-dien-1-yl)-N´-(2-benzyladamantan-2-yl)ethane-1,2-diamine] | 6.1 µM | 16.6 °C | 5.16 kcal/mol | 10 °C | ~6.9 °C | 6000 nM | 5.8 µM | 850 ± 90 nM | 2000 ± 400 nM | 6600 ± 1000 nM | 2000 ± 500 nM | 1.6 µM | 100% | 5.8 µM | 6100 ± 60 nM | 48.0 °C | 13.3 kcal/mol | 1.7 °C | 0.2–1.6 °C | ~ 5 °C | Broadening of main transition peak ΔΤ1/2 compared to pure DMPC ([2]; heating): 9.6 °C; Activity against M. abscessus higher than SQ109 [4]: 4–8 fold; MIC against M. abscessus [4]: 5.8 to 6.2 µM; IC50 [19]: 590 nM; IC50 [6]: 130000 nM; Less activity than SQ109 against M. tuberculosis ([10]; MtbHN878, MtErdman and MtH37Rv): 2–4 fold; koff [15]: 0.3999 s⁻¹; Kd [15, 23]: 69000 nM; Kd [15, 24]: 74000 nM; ka1 ([15]; two-state model): 6462 M⁻¹ s⁻¹; ka2 ([15]; two-state model): 0.006528 s⁻¹; kd1 ([15]; two-state model): 0.5715 s⁻¹; kd2 ([15]; two-state model): 0.03248 s⁻¹; Mtb H37Rv MIC [16]: 6.1 µM; IC50 [18]: 920 ± 60 nM |
| CC(C)=CCCC(C)=CCNCCNC1(c2ccccc2)C2CC3CC(C2)CC1C3 (stereo not shown) [Compound 8h, N-(3,7-dimethylocta-2,6-dien-1-yl)-N´-(2-phenyl-adamantan-2-yl)ethane-1,2-diamine] | 13 µM | 14.7 °C | 7.12 kcal/mol | 2.7 °C | ~8.8 °C | 5800 nM | 12 µM | 1300 ± 300 nM | 3500 ± 1000 nM | 7300 ± 2000 nM | 2300 ± 200 nM | 1.6 µM | 100% | 6 µM | 1400 ± 1000 nM | 48.6 °C | 13.2 kcal/mol | 5.3 °C | 4.4 °C | ~ 5 °C | Intrinsic clearance rate (CLint) relative to SQ109 [20]: about twice as large; Metabolism relative to SQ109 [20]: more rapidly metabolized; % remanent at 60 minutes relative to SQ109 [21]: same % remanent as SQ109 (8a); Intrinsic clearance rate (CLint) relative to SQ109 [21]: essentially the same; Ec IC50 [6]: No inhibition; Intrinsic clearance rate (CLint) relative to SQ109 [22]: about twice as large; Metabolism relative to SQ109 [22]: more rapidly metabolized; IC50 [9]: 0.42 ± 0.09 µM; koff [15]: 0.465 s⁻¹; Kd [15, 23]: 115000 nM; Kd [15, 24]: 136000 nM; ka1 ([15]; two-state model): 25900 M⁻¹ s⁻¹; ka2 ([15]; two-state model): 0.00526 s⁻¹; kd1 ([15]; two-state model): 4.085 s⁻¹; kd2 ([15]; two-state model): 0.03247 s⁻¹; Mtb H37Rv MIC [16]: 13 µM; IC50 [18]: 600 ± 40 nM |
| CC(C)=CCCC(C)=CCNCCNC(C)(C)C12CC3CC(CC(C3)C1)C2 [Compound 12, N-(3,7-dimethylocta-2,6-dien-1-yl)-N´-(2-(adamantan-1-yl)propan-2-yl)ethane-1,2-diamine] | 13 µM | 19.8 °C | 4.25 kcal/mol | 4.1 °C | 3–4 °C | 15000 ± 2000 nM | 12.9 µM | 1400 ± 30 nM | 1400 ± 200 nM | 2400 ± 700 nM | 3400 ± 600 nM | 3 µM | 100% | 12.9 µM | 2300 ± 100 nM | 49.8 °C | 13.3 kcal/mol | 2.4 °C | 0.2–1.6 °C | 3–4 °C | IC50 [6]: 8900 nM; IC50 [9]: 0.77 ± 0.1 µM; koff [15]: 0.6646 s⁻¹; Kd [15, 23]: 106000 nM; Kd [15, 24]: 120000 nM; ka1 ([15]; two-state model): 7245 M⁻¹ s⁻¹; ka2 ([15]; two-state model): 0.007539 s⁻¹; kd1 ([15]; two-state model): 1.05 s⁻¹; kd2 ([15]; two-state model): 0.03558 s⁻¹; Mtb H37Rv MIC [16]: 13 µM; IC50 [17]: 4700 ± 200 nM; IC50 [18]: 560 ± 900 nM |
